From patent publication US8735414B2 (priority 2009, dated 2014)

How the values were obtained:
[1] = system: bicistronic HCV replicon (replicon RNA, GenBank Accession No. AJ242654); assay: HCV Replicon Assay; format: cell-based; settings: Hepatitis C virus, 72 h, read-out: Replicon IC50

SMILES | IC50 [1] [nM] | melting point [°C]
CC(C)Oc1ccc2c(C#N)c(-c3ccc(NS(=O)(=O)C4CC4)nn3)n(C3CCC3)c2c1 [compound 274, N-{6-[3-cyano-1-cyclobutyl-6-(propan-2-yloxy)-1H-indol-2-yl]pyridazin-3-yl}cyclopropanesulfonamide] | 2000 to 5000 | 175 to 177
Cc1cc2c(C#N)c(-c3ccc(S(=O)(=O)NC(CF)CF)cn3)n(C3CCC3)c2cc1F [compound 493, 6-(3-cyano-1-cyclobutyl-6-fluoro-5-methyl-1H-indol-2-yl)-N-(1,3-difluoropropan-2-yl)pyridine-3-sulfonamide] | < 500 | 209 to 213
Cc1ccc2c(C#N)c(-c3ccc(S(=O)(=O)NC(C)(C)C(F)(F)F)cn3)n(C3CCC3)c2c1F [compound 578, 6-(3-cyano-1-cyclobutyl-7-fluoro-6-methyl-1H-indol-2-yl)-N-(1,1,1-trifluoro-2-methylpropan-2-yl)pyridine-3-sulfonamide] | < 500 | 168 to 175
CCc1cc2c(cc1F)c(C(N)=O)c(-c1ccc(NS(=O)(=O)C(C)(C)C)nc1)n2[C@H](C)C1CC1 [compound 1104, 2-{6-[(tert-butylsulfonyl)amino]pyridin-3-yl}-1-[(1R)-1-cyclopropylethyl]-6-ethyl-5-fluoro-1H-indole-3-carboxamide] | < 500 | 255.5 to 259
CCc1cc2c(cc1F)c(C#N)c(-c1ccc(S(=O)(=O)N[C@@H](C)C(F)(F)F)cn1)n2-c1cncnc1 [compound 963, 6-[3-cyano-6-ethyl-5-fluoro-1-(pyrimidin-5-yl)-1H-indol-2-yl]-N-[(2S)-1,1,1-trifluoropropan-2-yl]pyridine-3-sulfonamide] | < 500 | 250 to 257
Cc1cc(-c2c(C#N)c3cc(F)ccc3n2-c2ccccn2)ncc1S(=O)(=O)N[C@@H](C)C(F)(F)F [compound 847, 6-[3-cyano-5-fluoro-1-(pyridin-2-yl)-1H-indol-2-yl]-4-methyl-N-[(2S)-1,1,1-trifluoropropan-2-yl]pyridine-3-sulfonamide] | < 500 | 180 to 186
Cc1cc2c(cc1F)c(C#N)c(-c1ccc(S(=O)(=O)N[C@@H](C)C(F)(F)F)cn1)n2C1CCCC1 [compound 408, 6-(3-cyano-1-cyclopentyl-5-fluoro-6-methyl-1H-indol-2-yl)-N-[(2S)-1,1,1-trifluoropropan-2-yl]pyridine-3-sulfonamide] | < 500 | 168 to 171
Cc1cc2c(C#N)c(-c3ccc(S(=O)(=O)N[C@@H](C)C(F)(F)F)cn3)n(C3CCC3)c2cc1OC(F)F [compound 660, 6-[3-cyano-1-cyclobutyl-6-(difluoromethoxy)-5-methyl-1H-indol-2-yl]-N-[(2S)-1,1,1-trifluoropropan-2-yl]pyridine-3-sulfonamide] | < 500 | 168 to 170
C[C@H](NS(=O)(=O)c1cnc(-c2c(C#N)c3ccc(OC(F)F)cc3n2C2CCC2)nc1)C1CC1 [compound 130, 2-[3-cyano-1-cyclobutyl-6-(difluoromethoxy)-1H-indol-2-yl]-N-[(1S)-1-cyclopropylethyl]pyrimidine-5-sulfonamide] | < 500 | 172 to 174
C[C@H](NS(=O)(=O)c1ccc(-c2c(C#N)c3cc(F)ccc3n2CC2CC2)nc1)C(F)(F)F [compound 436, 6-[3-cyano-1-(cyclopropylmethyl)-5-fluoro-1H-indol-2-yl]-N-[(2S)-1,1,1-trifluoropropan-2-yl]pyridine-3-sulfonamide] | < 500 | 165 to 167
Cc1cc(-c2c(C#N)c3cc(F)ccc3n2-c2ncccn2)ncc1S(=O)(=O)N[C@@H](C)C(F)(F)F [compound 848, 6-[3-cyano-5-fluoro-1-(pyrimidin-2-yl)-1H-indol-2-yl]-4-methyl-N-[(2S)-1,1,1-trifluoropropan-2-yl]pyridine-3-sulfonamide] | < 500 | 199 to 204
C[C@H](NS(=O)(=O)c1ccc(-c2c(C(N)=O)c3cc(F)c(OC(F)F)cc3n2C2CCC2)nc1)C(F)(F)F [compound 703, 1-cyclobutyl-6-(difluoromethoxy)-5-fluoro-2-(5-{[(2S)-1,1,1-trifluoropropan-2-yl]sulfamoyl}pyridin-2-yl)-1H-indole-3-carboxamide] | < 500 | 184 to 186
C[C@H](NS(=O)(=O)c1ccc(-c2c(C#N)c3cc(F)c(O)cc3n2C2CCCC2)nc1)C(F)(F)F [compound 576, 6-(3-cyano-1-cyclopentyl-5-fluoro-6-hydroxy-1H-indol-2-yl)-N-[(2S)-1,1,1-trifluoropropan-2-yl]pyridine-3-sulfonamide] | < 500 | 214 to 216
C[C@H](NS(=O)(=O)c1ccc(-c2c(C#N)c3ccc(OC(F)(F)F)cc3n2C2CCC2)nc1)C(F)(F)F [compound 370, 6-[3-cyano-1-cyclobutyl-6-(trifluoromethoxy)-1H-indol-2-yl]-N-[(2S)-1,1,1-trifluoropropan-2-yl]pyridine-3-sulfonamide] | < 500 | 165 to 175
Cc1cc2c(cc1F)c(C(N)=O)c(-c1ccc(S(=O)(=O)N[C@H](C)C(F)(F)F)cn1)n2C1CCCCC1 [compound 716, 1-cyclohexyl-5-fluoro-6-methyl-2-(5-{[(2R)-1,1,1-trifluoropropan-2-yl]sulfamoyl}pyridin-2-yl)-1H-indole-3-carboxamide] | < 500 | 272 to 276
[2H]C([2H])([2H])c1cc2c(cc1F)c(C#N)c(-c1ccc(S(=O)(=O)N[C@@]([2H])(C)C(F)(F)F)cn1)n2C1CCC1 [compound 1114, 6-[3-cyano-1-cyclobutyl-5-fluoro-6-(1,1,1-trideuterium)methyl-1H-indol-2-yl]-N-[(2S)-1,1,1-trifluoro(2-deuterium)propan-2-yl]pyridine-3-sulfonamide] | < 500 | 213 to 215
C[C@H](NS(=O)(=O)c1cnc(-c2c(C#N)c3ccc(CC(F)F)cc3n2CC2CC2)nc1)C(F)(F)F [compound 622, 2-[3-cyano-1-(cyclopropylmethyl)-6-(2,2-difluoroethyl)-1H-indol-2-yl]-N-[(2S)-1,1,1-trifluoropropan-2-yl]pyrimidine-5-sulfonamide] | < 500 | 195 to 205
CC(C)NS(=O)(=O)c1cnc(-c2c(C#N)c3cc(F)ccc3n2C(C)C)nc1 [compound 123, 2-[3-cyano-5-fluoro-1-(propan-2-yl)-1H-indol-2-yl]-N-(propan-2-yl)pyrimidine-5-sulfonamide] | < 500 | 192 to 197
Cc1cc2c(cc1F)c(C#N)c(-c1ccc(S(=O)(=O)N[C@@H](C)C(F)(F)F)cn1)n2-c1ccnc(F)c1 [compound 1013, 6-[3-cyano-5-fluoro-1-(2-fluoropyridin-4-yl)-6-methyl-1H-indol-2-yl]-N-[(2S)-1,1,1-trifluoropropan-2-yl]pyridine-3-sulfonamide] | < 500 | 243.4 to 246.9
CCn1c(-c2ccc(N(CC#N)S(=O)(=O)C3CC3)nc2)c(C#N)c2ccc(OC(C)C)cc21 [compound 294, N-{5-[3-cyano-1-ethyl-6-(propan-2-yloxy)-1H-indol-2-yl]pyridin-2-yl}-N-(cyanomethyl)cyclopropanesulfonamide] | 500 to 2000 | 236 to 238
C[C@@H](NS(=O)(=O)c1ccc(-c2c(C#N)c3ccc(C4CC4)cc3n2C2CCCC2)nc1)C(F)(F)F [compound 211, 6-(3-cyano-1-cyclopentyl-6-cyclopropyl-1H-indol-2-yl)-N-[(2R)-1,1,1-trifluoropropan-2-yl]pyridine-3-sulfonamide] | < 500 | 178 to 181
CCc1cc(F)c2c(C(N)=O)c(-c3ccc(NS(=O)(=O)C(C)(C)C)nc3)n(-c3ccc(F)cc3)c2c1 [compound 1106, 2-{6-[(tert-butylsulfonyl)amino]pyridin-3-yl}-6-ethyl-4-fluoro-1-(4-fluorophenyl)-1H-indole-3-carboxamide] | < 500 | 280 to 288
C[C@H](NS(=O)(=O)c1cnc(-c2c(C#N)c3ccc(OC(F)F)cc3n2C2CCC2)nc1)C(F)(F)F [compound 323, 2-[3-cyano-1-cyclobutyl-6-(difluoromethoxy)-1H-indol-2-yl]-N-[(2S)-1,1,1-trifluoropropan-2-yl]pyrimidine-5-sulfonamide] | < 500 | 221 to 223
N#Cc1c(-c2ncc(S(=O)(=O)NC(CF)CF)cn2)n(C2CCC2)c2ccc(F)cc12 [compound 452, 2-(3-cyano-1-cyclobutyl-5-fluoro-1H-indol-2-yl)-N-(1,3-difluoropropan-2-yl)pyrimidine-5-sulfonamide] | < 500 | 175 to 180
C[C@H](NS(=O)(=O)c1cnc(-c2c(C#N)c3cc(C#N)ccc3n2C2CCCC2)nc1)C1CC1 [compound 367, N-[(1S)-1-cyclopropylethyl]-2-(3,5-dicyano-1-cyclopentyl-1H-indol-2-yl)pyrimidine-5-sulfonamide] | 500 to 2000 | 218 to 223
CCc1cc2c(cc1F)c(C#N)c(-c1ccc(S(=O)(=O)NCC3CCC3)cn1)n2-c1ncccn1 [compound 953, 6-[3-cyano-6-ethyl-5-fluoro-1-(pyrimidin-2-yl)-1H-indol-2-yl]-N-(cyclobutylmethyl)pyridine-3-sulfonamide] | < 500 | 207 to 214
N#Cc1c(-c2ncc(S(=O)(=O)NC(CF)CF)cn2)n(C2CCC2)c2cc(C3CCC3)ccc12 [compound 264, 2-(3-cyano-1,6-dicyclobutyl-1H-indol-2-yl)-N-(1,3-difluoropropan-2-yl)pyrimidine-5-sulfonamide] | 500 to 2000 | 184 to 188
CCc1cc2c(cc1F)c(C#N)c(-c1ccc(S(=O)(=O)N(c3ncccn3)C3(C)CC3)cn1)n2-c1ncccn1 [compound 861, 6-[3-cyano-6-ethyl-5-fluoro-1-(pyrimidin-2-yl)-1H-indol-2-yl]-N-(1-methylcyclopropyl)-N-(pyrimidin-2-yl)pyridine-3-sulfonamide] | 2000 to 5000 | 193 to 200
